Tests used:
[1] = biological target: T1, ALK2 R206H (GST-tagged mutant ALK2) (Homo sapiens, UniProt Q04771, R206H); experiment: ALK binding assay (LANTHASCREEN TR-FRET competitive binding, displacement of Kinase Tracer 178); settings: ALK2 R206H, LANTHASCREEN TR-FRET competitive binding; read-out: Binding Assay (IC50)
T1 construct: purchased Carna Bioscience or ThermoFisher 09-148 or PV6232
T1 sequence (Q04771 21-509 R206H): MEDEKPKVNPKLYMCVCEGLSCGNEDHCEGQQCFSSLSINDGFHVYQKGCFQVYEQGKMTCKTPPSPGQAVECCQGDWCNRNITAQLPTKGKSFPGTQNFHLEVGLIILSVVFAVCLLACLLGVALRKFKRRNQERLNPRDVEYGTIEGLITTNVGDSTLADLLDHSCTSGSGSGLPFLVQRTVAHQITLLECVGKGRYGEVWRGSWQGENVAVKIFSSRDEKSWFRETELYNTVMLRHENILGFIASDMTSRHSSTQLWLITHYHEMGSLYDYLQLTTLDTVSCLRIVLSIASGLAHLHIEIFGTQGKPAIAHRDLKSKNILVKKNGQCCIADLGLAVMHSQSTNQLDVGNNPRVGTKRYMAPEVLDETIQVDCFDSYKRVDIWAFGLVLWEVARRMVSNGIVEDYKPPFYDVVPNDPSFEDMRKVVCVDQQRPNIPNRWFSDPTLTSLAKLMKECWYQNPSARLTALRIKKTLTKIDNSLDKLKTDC

human ALK2 R206H = biological target: T2, human ALK2 R206H (Homo sapiens, UniProt Q04771, R206H); experiment: Cell-based ALK2-R206H cell activity assay (Smad1-Ser463/Ser465 phosphorylation by AlphaLISA in HEK293-ALK2-R206H cells); settings: read-out: Cell Line (Cell Assay IC50)
T2 construct: expressed in transfected cells; host or cells: HEK293 (ATCC CRL1573), lentivirus transduction, blasticidin selection
T2 sequence (Q04771 21-509 R206H): T1 sequence (Q04771 21-509 R206H)
In short: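 Stable HEK293 cells expressing C-terminally FLAG-tagged human ALK2 R206H (lentiviral, blasticidin-selected) were treated with compounds in 10-point, 3-fold dilutions from 10 μM or 1 μM top, in duplicate. Smad1 Ser463/Ser465 phosphorylation was read by AlphaLISA.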

| Compound | IC50 [1] [nM] | IC50 (human ALK2 R206H) [nM] |
| --- | --- | --- |
| COC1(c2ccc(-c3cc4c(N5CCN(C(=O)C6CC6)CC5)ccnn4c3)cc2)CN(C(C)C)C1 [Compound 521] | < 10 | < 100 |
| CC(C)N1CC[C@](O)(c2ccc(-c3cc4c(N5CCN(C(=O)C6CC6)CC5)ccnn4c3)cc2)C1 [Compound 522] | < 10 | < 100 |
| CC(C)N1CC[C@@](O)(c2ccc(-c3cc4c(N5CCN(C(=O)C6CC6)CC5)ccnn4c3)cc2)C1 [Compound 523] | < 10 | < 100 |
| CCOC1(c2ccc(-c3cc4c(N5CCN(C(=O)C6CC6)CC5)ccnn4c3)cc2)CCNCC1 [Compound 524] | < 10 | < 100 |
| CC(C)N1CC[C@@](O)(c2ccc(-c3cc4c(N5CCN(C(=O)C6CC6)CC5)ccnn4c3)nc2)C1 [Compound 526] | < 10 | < 100 |
| CC(C)N1CC[C@](O)(c2ccc(-c3cc4c(N5CCN(C(=O)C6CC6)CC5)ccnn4c3)nc2)C1 [Compound 527] | < 10 | < 100 |
| CCCNC(=O)N1CCN(c2ccnn3cc(-c4ccc([C@@H]5CCN(C(C)C)C5)cc4)cc23)CC1 [Compound 530] | < 10 | < 100 |
| CC(C)NC(=O)N1CCN(c2ccnn3cc(-c4ccc([C@@H]5CCN(C(C)C)C5)cc4)cc23)CC1 [Compound 531] | < 10 | < 100 |
| CCCNC(=O)N1CCN(c2ccnn3cc(-c4ccc([C@H]5CCN(C(C)C)C5)cc4)cc23)CC1 [Compound 532] | < 10 | < 100 |
| CC(C)NC(=O)N1CCN(c2ccnn3cc(-c4ccc([C@H]5CCN(C(C)C)C5)cc4)cc23)CC1 [Compound 533] | < 10 | < 100 |
| CCOC(=O)N1CCN(c2ccnn3cc(-c4ccc(C5CCN(C(C)C)CC5)cc4)cc23)CC1 [Compound 534] | < 10 | < 100 |
| CCNC(=O)N1CCN(c2ccnn3cc(-c4ccc(C5CN(C(C)C)CCN5)cc4)cc23)CC1 (stereo not shown) [Compound 537] | < 10 | < 100 |
| CCNC(=O)N1CCN(c2ccnn3cc(-c4ccc([C@@H]5CCCN(C(C)C)C5)cn4)cc23)CC1 [Compound 538] | < 10 | < 100 |
| CCNC(=O)N1CCN(c2ccnn3cc(-c4ccc([C@H]5CCCN(C(C)C)C5)cn4)cc23)CC1 [Compound 539] | < 10 | < 100 |
| CC(C)NC(=O)N1CCN(c2ccnn3cc(-c4ccc(C5(O)CN(C(C)C)C5)cc4)cc23)CC1 [Compound 540] | < 10 | < 100 |
| COC1(c2ccc(-c3cc4c(N5CCN(C(=O)NC(C)C)CC5)ccnn4c3)cc2)CCNCC1 [Compound 541] | < 10 | < 100 |
| CO[C@]1(c2ccc(-c3cc4c(N5CCN(C(=O)NC(C)C)CC5)ccnn4c3)cc2)CCCNC1 [Compound 542] | < 10 | < 100 |
| CO[C@@]1(c2ccc(-c3cc4c(N5CCN(C(=O)NC(C)C)CC5)ccnn4c3)cc2)CCCNC1 [Compound 543] | < 10 | < 100 |
| CCOC(=O)N1CCN(c2ccnn3cc(-c4ccc([C@@H]5CCCN(C(C)C)C5)cn4)cc23)CC1 [Compound 544] | < 10 | < 100 |
| CCOC(=O)N1CCN(c2ccnn3cc(-c4ccc([C@H]5CCCN(C(C)C)C5)cn4)cc23)CC1 [Compound 545] | < 10 | < 100 |
| CC(C)N1CCC(C)(c2ccc(-c3cc4c(N5CCN(C(=O)C6CC6)CC5)ccnn4c3)cc2)CC1 [Compound 565] | < 10 | < 100 |
| CCOC(=O)N1CCN(c2ccnn3cc(-c4ccc(C5(C)CCN(C(C)C)CC5)cc4)cc23)CC1 [Compound 585] | < 10 | < 100 |

Next, values leading:

| IC50 [1] [nM] | IC50 (human ALK2 R206H) [nM] | Compound |
| --- | --- | --- |
| < 10 | < 100 | CCNC(=O)N1CCN(c2ccnn3cc(-c4ccc(N5CCN(C(C)C)CC5)cn4)cc23)CC1 [Compound 546] |
| < 10 | > 500 | CCNC(=O)N1CCN(c2ccnn3cc(-c4ccc(C5CCN(C(C)C)CC5)nn4)cc23)CC1 [Compound 548] |
| < 10 | < 100 | CCOC(=O)N1CCN(c2ccnn3cc(-c4ccc([C@@]5(O)CCN(C(C)C)C5)cc4)cc23)CC1 [Compound 550] |
| < 10 | < 100 | CCOC(=O)N1CCN(c2ccnn3cc(-c4ccc([C@]5(O)CCN(C(C)C)C5)cc4)cc23)CC1 [Compound 551] |
| < 10 | 100 to 500 | CCNC(=O)N1CCN(c2ccnn3cc(-c4cnc(N5CCN(C(C)C)CC5)cn4)cc23)CC1 [Compound 554] |
| < 10 | < 100 | CC(C)NC(=O)N1CCN(c2ccnn3cc(-c4cnn([C@@H]5CCCN(C(C)C)C5)c4)cc23)CC1 [Compound 556] |
| < 10 | < 100 | CC(C)NC(=O)N1CCN(c2ccnn3cc(-c4cnn([C@H]5CCCN(C(C)C)C5)c4)cc23)CC1 [Compound 557] |
| < 10 | < 100 | O=C(OC1COC1)N1CCN(c2ccnn3cc(-c4ccc([C@]5(F)CCCNC5)cc4)cc23)CC1 [Compound 558] |
| < 10 | < 100 | O=C(OC1COC1)N1CCN(c2ccnn3cc(-c4ccc([C@@]5(F)CCCNC5)cc4)cc23)CC1 [Compound 559] |
| < 10 | < 100 | CCC(C)N1CCC[C@@H](c2ccc(-c3cc4c(N5CCN(C(=O)C6CC6)CC5)ccnn4c3)cc2)C1 (stereo partly shown) [Compound 560] |
| < 10 | < 100 | CC[C@H](C)N1CCC[C@@H](c2ccc(-c3cc4c(N5CCN(C(=O)C6CC6)CC5)ccnn4c3)cc2)C1 [Compound 561] |
| < 10 | < 100 | CC[C@@H](C)N1CCC[C@@H](c2ccc(-c3cc4c(N5CCN(C(=O)C6CC6)CC5)ccnn4c3)cc2)C1 [Compound 562] |
| < 10 | < 100 | CC[C@@H](C)N1CCC(c2ccc(-c3cc4c(N5CCN(C(=O)C6CC6)CC5)ccnn4c3)cc2)CC1 [Compound 563] |
| < 10 | < 100 | CC[C@H](C)N1CCC(c2ccc(-c3cc4c(N5CCN(C(=O)C6CC6)CC5)ccnn4c3)cc2)CC1 [Compound 564] |
| < 10 | < 100 | CC(C)N1CCN(C)C(c2ccc(-c3cc4c(N5CCN(C(=O)C6CC6)CC5)ccnn4c3)cc2)C1 (stereo not shown) [Compound 566] |
| < 10 | < 100 | CC(C)N1CCN(C)[C@@H](c2ccc(-c3cc4c(N5CCN(C(=O)C6CC6)CC5)ccnn4c3)cc2)C1 [Compound 567] |

| IC50 [1] [nM] | IC50 (human ALK2 R206H) [nM] | Compound |
| --- | --- | --- |
| < 10 | < 100 | CC(C)N1CCN(C)[C@H](c2ccc(-c3cc4c(N5CCN(C(=O)C6CC6)CC5)ccnn4c3)cc2)C1 [Compound 568] |
| < 10 | < 100 | CC(C)N1CCN[C@](C)(c2ccc(-c3cc4c(N5CCN(C(=O)C6CC6)CC5)ccnn4c3)cc2)C1 [Compound 570] |
| < 10 | < 100 | CO[C@]1(c2ccc(-c3cc4c(N5CCN(C(=O)C6CC6)CC5)ccnn4c3)cc2)CCN(C(C)C)C1 [Compound 572] |
| < 10 | < 100 | CO[C@@]1(c2ccc(-c3cc4c(N5CCN(C(=O)C6CC6)CC5)ccnn4c3)cc2)CCN(C(C)C)C1 [Compound 573] |
| < 10 | 100 to 500 | CC(C)N1CCN[C@](C)(c2ccc(-c3cc4c(N5CCN(C(=O)C6CC6)CC5)ccnn4c3)nc2)C1 [Compound 575] |
| < 10 | < 100 | CC(C)N1CCN[C@@](C)(c2ccc(-c3cc4c(N5CCN(C(=O)C6CC6)CC5)ccnn4c3)nc2)C1 [Compound 576] |
| < 10 | < 100 | CC(C)NC(=O)N1CCN(c2ccnn3cc(-c4ccc([C@@H]5CCCN(C(C)C)C5)cc4)cc23)CC1 [Compound 577] |
| < 10 | < 100 | CC(C)NC(=O)N1CCN(c2ccnn3cc(-c4ccc([C@H]5CCCN(C(C)C)C5)cc4)cc23)CC1 [Compound 578] |
| < 10 | < 100 | CCCNC(=O)N1CCN(c2ccnn3cc(-c4ccc([C@H]5CCCN(C(C)C)C5)cc4)cc23)CC1 [Compound 579] |
| < 10 | < 100 | CCCNC(=O)N1CCN(c2ccnn3cc(-c4ccc([C@@H]5CCCN(C(C)C)C5)cc4)cc23)CC1 [Compound 580] |
| < 10 | < 100 | CC(C)NC(=O)N1CCN(c2ccnn3cc(-c4ccc([C@]5(C)CCCN5C(C)C)cc4)cc23)CC1 [Compound 581] |
| < 10 | < 100 | CC(C)NC(=O)N1CCN(c2ccnn3cc(-c4ccc([C@@]5(C)CCCN5C(C)C)cc4)cc23)CC1 [Compound 582] |
| < 10 | < 100 | CC(C)N1CCC(F)(c2ccc(-c3cc4c(N5CCN(C(=O)C6CC6)CC5)ccnn4c3)cc2)CC1 [Compound 583] |
| < 10 | 100 to 500 | CCOC(=O)N1CCN(c2ccnn3cc(-c4ccc([C@@H]5CCCN(C(C)C)C5)cc4)cc23)C[C@H]1C [Compound 586] |
| < 10 | < 100 | CCNC(=O)N1CCN(c2ccnn3cc(-c4ccc(C5CN(C(C)C)CCN5C)cc4)cc23)CC1 (stereo not shown) [Compound 587] |
